Reference: PMC5768343, “A natural inhibitor of kidney-type glutaminase: a withanolide from Physalis pubescens with potent anti-tumor activity” (Oncotarget, 2017)
Like-named read-outs stand apart in the source and are kept apart here.

Test system: human pancreatic cancer cells (SW1990)
Test: CCK8 cytotoxicity / proliferation assay, SW1990
Conditions: read-out: IC50 SW1990
Description: The SW1990, HT1080, and A375-S2 human tumor cell lines were obtained from ATCC (Manassas, VA, USA). […] SW1990, HT1080, and LO2 cells were cultured in DMEM medium with 10% fetal bovine serum (FBS). All of these cells were cultured at 37°C in a humidified atmosphere with 5% CO2. To estimate cell viability, cells (5000/well) were separately seeded in 96-well plates for 24 h at 37°C in a 5% CO2 incubator. […] All the experiments were performed in triplicate, and the mean absorbance values were calculated. The IC50 values of the compounds were derived from the mean OD values of the triplicate tests versus the drug concentration curves.
Cell proliferation was assessed by incubating them with Cell Counting Kit-8 reagents (Dojindo, Shanghai, China) for 24 h, 48 h, 72 h, 96 h at 37°C and measuring the absorbance at 450 nm. The experiment was performed in triplicate.

| Structure (SMILES) | IC50 (CCK8, 48 h) [µM] | IC50 (Homo sapiens, SW1990, 48 h) [µM] |
| --- | --- | --- |
| O=C(Cc1ccccc1)Nc1nnc(CCSCCc2nnc(NC(=O)Cc3ccccc3)s2)s1 [BPTES, reference compound] | 35.3 ± 0.67 |  |
| O=C(Cc1cccc(OC(F)(F)F)c1)Nc1ccc(CCCCc2nnc(NC(=O)Cc3ccccn3)s2)nn1 [CB-839, reference compound] |  | 13.1 ± 0.57 |
